Assays:
[1] = system: Puccinia recondita f. Sp. Tritici; experiment: Fungicidal activity, wheat leaf disc preventative (brown rust); format: in vivo; settings: foliar, 200 ppm in the applied formulation, wheat leaf segments cv. Kanzler, compared to untreated control, 7 to 9 days after application, read-out: disease control
Summary of the method: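 Preventative leaf-segment test: spray application of diluted formulated compound on wheat cv. Kanzler, spore inoculation after 1 day. Percent control relative to untreated segments rated 7 to 9 days post-application, with incubation at 19° C, 75% relative humidity, 12 h photoperiod.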

[2] = system: Puccinia recondita f. Sp. Tritici; experiment: Fungicidal activity, wheat leaf disc curative (brown rust); format: in vivo; settings: foliar, 200 ppm in the applied formulation, wheat leaf segments cv. Kanzler, curative (applied 1 day after inoculation), compared to untreated control, 6 to 8 days after application, read-out: disease control
Summary of the method: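 Compound applied 1 day after spore inoculation of wheat cv. Kanzler leaf segments on agar (dark, 19 °C, 75% RH before treatment). After further incubation under 12 h light/12 h dark at 19 °C and 75% RH, disease control relative to untreated segments rated 6–8 days post-application.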

Phakopsora pachyrhizi = experiment: Fungicidal activity, soybean leaf disc preventative (Asian soybean rust); format: in vivo; settings: foliar, 200 ppm in the applied formulation, soybean leaf disks, compared to untreated control, 12 to 14 days after application, read-out: disease control
Description: Leaf disks or leaf segments of various plant species are cut from plants grown in a greenhouse. The cut leaf disks or segments are placed in multiwell plates (24-well format) onto water agar. The leaf disks are sprayed with a test solution before (preventative) or after (curative) inoculation. Compounds to be tested are prepared as DMSO solutions (max. 10 mg/ml) which are diluted to the appropriate concentration with 0.025% Tween20 just before spraying. The inoculated leaf disks or segments are incubated under defined conditions (temperature, relative humidity, light, etc.) according to the respective test system. A single evaluation of disease level is carried out 3 to 14 days after inoculation, depending on the pathosystem. Percent disease control relative to the untreated check leaf disks or segments is then calculated.
Soybean leaf disks are placed on water agar in multiwell plates (24-well format) and sprayed with the formulated test compound diluted in water. One day after application leaf discs are inoculated by spraying a spore suspension on the lower leaf surface. After an incubation period in a climate cabinet of 24-36 hours in darkness at 20° C. and 75% rh leaf disc are kept at 20° C. with 12 h light/day and 75% rh. The activity of a compound is assessed as percent disease control compared to untreated when an appropriate level of disease damage appears in untreated check leaf disks (12 to 14 days after application).
The following compounds at 200 ppm in the applied formulation give at least 80% disease control in this test when compared to untreated control leaf disks under the same conditions, which show extensive disease development.

[3] = system: Glomerella lacenarium (Colletotrichum lacenarium); experiment: Fungicidal activity, liquid culture, cucumber preventative (anthracnose); format: cell-based; settings: 20 ppm in the applied formulation, liquid culture in PDB, inhibition of growth measured photometrically 3 to 4 days after application, compared to untreated control, read-out: disease control
Summary of the method: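 Photometric read-out of fungal growth 3 to 4 days after application, expressed as percent control relative to untreated wells. Plates held at 24 °C. Compound placed in DMSO before adding PDB broth seeded with conidia from cryogenic storage.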

CC(C)C(=O)NCc1ccc(-c2noc(C(F)(F)F)n2)s1 [Compound 2.9, 2-methyl-N-[[5-[5-(trifluoromethyl)-1,2,4-oxadiazol-3-yl]-2-thienyl]methyl]propanamide]
≥ 80%: pest or weed control at 200 ppm [1] | pest or weed control at 200 ppm [2] | pest or weed control at 200 ppm (Phakopsora pachyrhizi) | inhibition of growth at 20 ppm [3]

CC1(C(=O)NCc2ccc(-c3noc(C(F)(F)F)n3)s2)COC1 [Compound 3.7, 3-methyl-N-[[5-[5-(trifluoromethyl)-1,2,4-oxadiazol-3-yl]-2-thienyl]methyl]oxetane-3-carboxamide]
≥ 80%: pest or weed control at 200 ppm [1] | pest or weed control at 200 ppm [2] | pest or weed control at 200 ppm (Phakopsora pachyrhizi) | inhibition of growth at 20 ppm [3]

CCN(Cc1ccc(-c2noc(C(F)(F)F)n2)s1)C(=O)C1CC1 [Compound 5.4, N-ethyl-N-[[5-[5-(trifluoromethyl)-1,2,4-oxadiazol-3-yl]-2-thienyl]methyl]cyclopropanecarboxamide]
≥ 80%: pest or weed control at 200 ppm [1] | pest or weed control at 200 ppm [2] | pest or weed control at 200 ppm (Phakopsora pachyrhizi) | inhibition of growth at 20 ppm [3]

CCCC(=O)N(Cc1ccc(-c2noc(C(F)(F)F)n2)s1)OC [Compound 1.21, N-methoxy-N-[[5-[5-(trifluoromethyl)-1,2,4-oxadiazol-3-yl]-2-thienyl]methyl]butanamide]
≥ 80%: pest or weed control at 200 ppm [1] | pest or weed control at 200 ppm [2] | pest or weed control at 200 ppm (Phakopsora pachyrhizi) | inhibition of growth at 20 ppm [3]

CON(Cc1ccc(-c2noc(C(F)(F)F)n2)s1)C(=O)C1CC1 [Compound 1.4, N-methoxy-N-[[5-[5-(trifluoromethyl)-1,2,4-oxadiazol-3-yl]-2-thienyl]methyl]cyclopropanecarboxamide]
≥ 80%: pest or weed control at 200 ppm [1] | pest or weed control at 200 ppm [2] | pest or weed control at 200 ppm (Phakopsora pachyrhizi) | inhibition of growth at 20 ppm [3]

CCC(=O)N(CC)Cc1ccc(-c2noc(C(F)(F)F)n2)s1 [Compound 4.26, N-ethyl-N-[[5-[5-(trifluoromethyl)-1,2,4-oxadiazol-3-yl]-2-thienyl]methyl]propanamide]
≥ 80%: pest or weed control at 200 ppm [1] | pest or weed control at 200 ppm [2] | pest or weed control at 200 ppm (Phakopsora pachyrhizi) | inhibition of growth at 20 ppm [3]

CCC(C)C(=O)NCc1ccc(-c2noc(C(F)(F)F)n2)s1 (stereo not shown) [Compound 2.7, 2-methyl-N-[[5-[5-(trifluoromethyl)-1,2,4-oxadiazol-3-yl]-2-thienyl]methyl]butanamide]
≥ 80%: pest or weed control at 200 ppm [1] | pest or weed control at 200 ppm [2] | pest or weed control at 200 ppm (Phakopsora pachyrhizi) | inhibition of growth at 20 ppm [3]

CON(Cc1ccc(-c2noc(C(F)(F)F)n2)s1)C(=O)C1(C)CC1 [Compound 1.15, N-methoxy-1-methyl-N-[[5-[5-(trifluoromethyl)-1,2,4-oxadiazol-3-yl]-2-thienyl]methyl]cyclopropanecarboxamide]
≥ 80%: pest or weed control at 200 ppm [1] | pest or weed control at 200 ppm [2] | pest or weed control at 200 ppm (Phakopsora pachyrhizi) | inhibition of growth at 20 ppm [3]

CCCC(=O)NCc1ccc(-c2noc(C(F)(F)F)n2)s1 [Compound 2.8, N-[[5-[5-(trifluoromethyl)-1,2,4-oxadiazol-3-yl]-2-thienyl]methyl]butanamide]
≥ 80%: pest or weed control at 200 ppm [1] | pest or weed control at 200 ppm [2] | pest or weed control at 200 ppm (Phakopsora pachyrhizi) | inhibition of growth at 20 ppm [3]

CN(Cc1ccc(-c2noc(C(F)(F)F)n2)s1)C(=O)NC1CC1 [Compound 5.6, 3-cyclopropyl-1-methyl-1-[[5-[5-(trifluoromethyl)-1,2,4-oxadiazol-3-yl]-2-thienyl]methyl]urea]
≥ 80%: pest or weed control at 200 ppm [1] | pest or weed control at 200 ppm [2] | pest or weed control at 200 ppm (Phakopsora pachyrhizi) | inhibition of growth at 20 ppm [3]

C#CCNC(=O)N(CC)Cc1ccc(-c2noc(C(F)(F)F)n2)s1 [Compound 4.75, 1-ethyl-3-prop-2-ynyl-1-[[5-[5-(trifluoromethyl)-1,2,4-oxadiazol-3-yl]-2-thienyl]methyl]urea]
≥ 80%: pest or weed control at 200 ppm [1] | pest or weed control at 200 ppm [2] | pest or weed control at 200 ppm (Phakopsora pachyrhizi) | inhibition of growth at 20 ppm [3]

CNC(=O)N(Cc1ccc(-c2noc(C(F)(F)F)n2)s1)C1CC1 [Compound 4.2, 1-cyclopropyl-3-methyl-1-[[5-[5-(trifluoromethyl)-1,2,4-oxadiazol-3-yl]-2-thienyl]methyl]urea]
≥ 80%: pest or weed control at 200 ppm [1] | pest or weed control at 200 ppm [2] | pest or weed control at 200 ppm (Phakopsora pachyrhizi) | inhibition of growth at 20 ppm [3]

O=C(NCc1ccc(-c2noc(C(F)(F)F)n2)s1)C1CCOC1 (stereo not shown) [Compound 3.3, N-[[5-[5-(trifluoromethyl)-1,2,4-oxadiazol-3-yl]-2-thienyl]methyl]tetrahydrofuran-3-carboxamide]
≥ 80%: pest or weed control at 200 ppm [1] | pest or weed control at 200 ppm [2] | pest or weed control at 200 ppm (Phakopsora pachyrhizi) | inhibition of growth at 20 ppm [3]

COCC(=O)N(Cc1ccc(-c2noc(C(F)(F)F)n2)s1)OC [Compound 1.9, N,2-dimethoxy-N-[[5-[5-(trifluoromethyl)-1,2,4-oxadiazol-3-yl]-2-thienyl]methyl]acetamide]
≥ 80%: pest or weed control at 200 ppm [1] | pest or weed control at 200 ppm [2] | pest or weed control at 200 ppm (Phakopsora pachyrhizi) | inhibition of growth at 20 ppm [3]

CON(C(=O)C1CC1)C(C)c1ccc(-c2noc(C(F)(F)F)n2)s1 (stereo not shown) [Compound 1.48, N-methoxy-N-[1-[5-[5-(trifluoromethyl)-1,2,4-oxadiazol-3-yl]-2-thienyl]ethyl]cyclopropanecarboxamide]
≥ 80%: pest or weed control at 200 ppm [1] | pest or weed control at 200 ppm [2] | pest or weed control at 200 ppm (Phakopsora pachyrhizi) | inhibition of growth at 20 ppm [3]

COCCCC(=O)NCc1ccc(-c2noc(C(F)(F)F)n2)s1 [Compound 2.10, 4-methoxy-N-[[5-[5-(trifluoromethyl)-1,2,4-oxadiazol-3-yl]-2-thienyl]methyl]butanamide]
≥ 80%: pest or weed control at 200 ppm [1] | pest or weed control at 200 ppm [2] | pest or weed control at 200 ppm (Phakopsora pachyrhizi) | inhibition of growth at 20 ppm [3]

COCCC(=O)NCc1ccc(-c2noc(C(F)(F)F)n2)s1 [Compound 2.4, 3-methoxy-N-[[5-[5-(trifluoromethyl)-1,2,4-oxadiazol-3-yl]-2-thienyl]methyl]propanamide]
≥ 80%: pest or weed control at 200 ppm [1] | pest or weed control at 200 ppm [2] | pest or weed control at 200 ppm (Phakopsora pachyrhizi) | inhibition of growth at 20 ppm [3]

CC1CC1C(=O)N(C)Cc1ccc(-c2noc(C(F)(F)F)n2)s1 (stereo not shown) [Compound 5.25, N,2-dimethyl-N-[[5-[5-(trifluoromethyl)-1,2,4-oxadiazol-3-yl]-2-thienyl]methyl]cyclopropanecarboxamide]
≥ 80%: pest or weed control at 200 ppm [1] | pest or weed control at 200 ppm [2] | pest or weed control at 200 ppm (Phakopsora pachyrhizi) | inhibition of growth at 20 ppm [3]

CON(Cc1ccc(-c2noc(C(F)(F)F)n2)s1)C(=O)C1CCCO1 (stereo not shown) [Compound 1.17, N-methoxy-N-[[5-[5-(trifluoromethyl)-1,2,4-oxadiazol-3-yl]-2-thienyl]methyl]tetrahydrofuran-2-carboxamide]
≥ 80%: pest or weed control at 200 ppm [1] | pest or weed control at 200 ppm [2] | pest or weed control at 200 ppm (Phakopsora pachyrhizi) | inhibition of growth at 20 ppm [3]

CN(Cc1ccc(-c2noc(C(F)(F)F)n2)s1)C(=O)C1CC1(F)F (stereo not shown) [Compound 5.24, 2,2-difluoro-N-methyl-N-[[5-[5-(trifluoromethyl)-1,2,4-oxadiazol-3-yl]-2-thienyl]methyl]cyclopropanecarboxamide]
≥ 80%: pest or weed control at 200 ppm [1] | pest or weed control at 200 ppm [2] | pest or weed control at 200 ppm (Phakopsora pachyrhizi) | inhibition of growth at 20 ppm [3]

CCNC(=O)N(C)Cc1ccc(-c2noc(C(F)(F)F)n2)s1 [Compound 4.16, 3-ethyl-1-methyl-1-[[5-[5-(trifluoromethyl)-1,2,4-oxadiazol-3-yl]-2-thienyl]methyl]urea]
≥ 80%: pest or weed control at 200 ppm [1] | pest or weed control at 200 ppm [2] | pest or weed control at 200 ppm (Phakopsora pachyrhizi) | inhibition of growth at 20 ppm [3]

COCC(=O)NCc1ccc(-c2noc(C(F)(F)F)n2)s1 [Compound 2.3, 2-methoxy-N-[[5-[5-(trifluoromethyl)-1,2,4-oxadiazol-3-yl]-2-thienyl]methyl]acetamide]
≥ 80%: pest or weed control at 200 ppm [1] | pest or weed control at 200 ppm [2] | pest or weed control at 200 ppm (Phakopsora pachyrhizi) | inhibition of growth at 20 ppm [3]

— patent US20200187502A1, “MICROBIOCIDAL OXADIAZOLE DERIVATIVES” (SYNGENTA PARTICIPATIONS AG, priority 2017, published 2020)
